In the supplement of paper PMC4649846:

Columns and labels:
[1] = system: MDA-MB-231; details: incubation time: 72 h
Summary of the method: (§1)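 MDA-MB-231 cells transfected a day earlier with siRNA against BRCA1 or non-targeting control siRNA were added at 4000 cells per well to 384-well plates holding compounds at 5 concentrations. After 72 h at 37 °C and 5% CO2, viability was read by CellTiter-Blue fluorescence. IC50 and drug sensitivity score came from logistic dose–response fits in Dotmatics Studies. The score is curve area relative to the area between 10% threshold and 100% inhibition, normalised by log of top response.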

[2] = system: MDA-MB-231; assay: drug sensitivity score (DSS); higher = more sensitive; extreme values may be limits of the assay; details: incubation time: 72 h
Summary of the method: as §1

[3] = siRNA: siControl (non-targeting)

| IC50 of cell viability ([1]; siRNA: siBRCA1) | IC50 of cell viability [1, 3] | Compound | drug sensitivity score ([2]; siRNA: siBRCA1) | drug sensitivity score [2, 3] |
| --- | --- | --- | --- | --- |
| > 4.17 µM | > 4.17 µM | C=CC[C@@H]1/C=C(\C)C[C@H](C)C[C@H](OC)[C@H]2O[C@@](O)(C(=O)C(=O)N3CCCC[C@H]3C(=O)O[C@H](/C(C)=C/[C@@H]3CC[C@@H](O)[C@H](OC)C3)[C@H](C)[C@@H](O)CC1=O)[C@H](C)C[C@@H]2OC [Tacrolimus] | 0 | 0 |
| > 4.17 µM | > 4.17 µM | CC/C(=C(\c1ccccc1)c1ccc(OCCN(C)C)cc1)c1ccccc1 [Tamoxifen] | 0 | 0 |
| > 4.17 µM | 1.13 µM | COc1cc2c(N3CCN(C(=O)Nc4ccc(OC(C)C)cc4)CC3)ncnc2cc1OCCCN1CCCCC1 [Tandutinib] | 0.708 | 3.18 |
| 0.377 µM | 0.233 µM | C=CCNC1=C2C[C@@H](C)C[C@H](OC)[C@H](O)[C@@H](C)/C=C(\C)[C@H](OC(N)=O)[C@@H](OC)/C=C\C=C(/C)C(=O)NC(=CC1=O)C2=O [Tanespimycin] | 15.1 | 17.3 |
| > 4.17 µM | > 4.17 µM | C[C@@H](C(=O)O)c1ccc(-c2ccccc2)c(F)c1 [Tarenflurbil] | 0 | 0 |
| > 4.17 µM | > 4.17 µM | Cn1nnc2c(C(N)=O)ncn2c1=O [Temozolomide] | 0 | 0 |
| 0.0039 µM | 0.00402 µM | CO[C@H]1C[C@@H]2CC[C@@H](C)[C@@](O)(O2)C(=O)C(=O)N2CCCC[C@H]2C(=O)O[C@H]([C@H](C)C[C@@H]2CC[C@@H](OC(=O)C(C)(CO)CO)[C@H](OC)C2)CC(=O)[C@H](C)/C=C(\C)[C@@H](O)[C@@H](OC)C(=O)[C@H](C)C[C@H](C)/C=C/C=C/C=C/1C [Temsirolimus] | 14.6 | 14.4 |
| 2.84 µM | 1.98 µM | COc1cc([C@@H]2c3cc4c(cc3[C@@H](O[C@@H]3O[C@@H]5CO[C@@H](c6cccs6)O[C@H]5[C@H](O)[C@H]3O)[C@H]3COC(=O)[C@H]23)OCO4)cc(OC)c1O [Teniposide] | 5.24 | 7.09 |
| > 4.17 µM | > 4.17 µM | O=C1CCC(N2C(=O)c3ccccc3C2=O)C(=O)N1 (stereo unspecified) [Thalidomide] | 0 | 0 |
| 1.85 µM | > 4.17 µM | Nc1nc2[nH]cnc2c(=S)[nH]1 [Thioguanine] | 3.71 | 0 |
| > 4.17 µM | > 4.17 µM | S=P(N1CC1)(N1CC1)N1CC1 [Thiotepa] | 0 | 0 |
| 0.0794 µM | 0.0305 µM | Cn1cncc1[C@@](N)(c1ccc(Cl)cc1)c1ccc2c(c1)c(-c1cccc(Cl)c1)cc(=O)n2C [Tipifarnib] | 12.8 | 14.1 |
| > 4.17 µM | 2.46 µM | COc1cc2nccc(Oc3ccc(NC(=O)Nc4cc(C)on4)c(Cl)c3)c2cc1OC [Tivozanib] | 3.36 | 2.37 |
| 0.661 µM | 0.766 µM | CC[C@@]1(O)C(=O)OCc2c1cc1n(c2=O)Cc2cc3c(CN(C)C)c(O)ccc3nc2-1 [Topotecan] | 10.4 | 10.6 |
| > 4.17 µM | > 4.17 µM | CC1=C(/C=C/C(C)=C/C=C/C(C)=C/C(=O)O)C(C)(C)CCC1 [Tretinoin] | 0.0479 | 0 |
| 0.0668 µM | 0.0289 µM | CN[C@@H]1C[C@H]2O[C@@](C)([C@@H]1OC)n1c3ccccc3c3c4c(c5c6ccccc6n2c5c31)C(=O)N[C@H]4O [UCN-01] | 23.4 | 27.8 |
| 0.729 µM | 0.273 µM | CCCCC(=O)OCC(=O)[C@]1(O)Cc2c(O)c3c(c(O)c2[C@@H](O[C@H]2C[C@H](NC(=O)C(F)(F)F)[C@H](O)[C@H](C)O2)C1)C(=O)c1c(OC)cccc1C3=O [Valrubicin] | 9.56 | 12.5 |
| 1.85 µM | 1.86 µM | COc1cc2/c(=N/c3ccc(Br)cc3F)nc[nH]c2cc1OCC1CCN(C)CC1 [Vandetanib] | 7.31 | 7.25 |
| > 4.17 µM | > 4.17 µM | Clc1ccc(Nc2nnc(Cc3ccncc3)c3ccccc23)cc1 [Vatalanib] | 0 | 0 |
| > 4.17 µM | > 4.17 µM | C[C@]1(c2nc3c(C(N)=O)cccc3[nH]2)CCCN1 [Veliparib] | 0 | 0 |
| 0.00572 µM | 0.00565 µM | CC[C@]1(O)C[C@@H]2CN(CCc3c([nH]c4ccccc34)[C@@](C(=O)OC)(c3cc4c(cc3OC)N(C)[C@H]3[C@@](O)(C(=O)OC)[C@H](OC(C)=O)[C@]5(CC)C=CCN6CC[C@]43[C@@H]65)C2)C1 [Vinblastine] | 31.4 | 30.9 |
| 0.00532 µM | 0.00355 µM | CC[C@]1(O)C[C@H]2CN(CCc3c([nH]c4ccccc34)[C@@](C(=O)OC)(c3cc4c(cc3OC)N(C=O)[C@H]3[C@@](O)(C(=O)OC)[C@H](OC(C)=O)[C@]5(CC)C=CCN6CC[C@]43[C@@H]65)C2)C1 [Vincristine] | 31.3 | 32.2 |
| 0.031 µM | 0.0236 µM | CCC1=C[C@@H]2CN(C1)Cc1c([nH]c3ccccc13)[C@@](C(=O)OC)(c1cc3c(cc1OC)N(C)[C@H]1[C@@](O)(C(=O)OC)[C@H](OC(C)=O)[C@]4(CC)C=CCN5CC[C@]31[C@@H]54)C2 [Vinorelbine] | 23.5 | 24 |
| > 4.17 µM | > 4.17 µM | CS(=O)(=O)c1ccc(C(=O)Nc2ccc(Cl)c(-c3ccccn3)c2)c(Cl)c1 [Vismodegib] | 0 | 0 |
| 2.04 µM | 1.13 µM | O=C(CCCCCCC(=O)Nc1ccccc1)NO [Vorinostat] | 6.81 | 9.94 |
| 2.82 µM | 0.23 µM | Oc1nc(-c2ccc(C(F)(F)F)cc2)nc2c1CSCC2 [XAV-939] | 1.98 | 4 |
| 0.00375 µM | 0.00356 µM | COCC[n+]1c2c(n(Cc3cnccn3)c1C)C(=O)c1ccccc1C2=O [YM155] | 40.2 | 40.6 |

| Compound | IC50 of cell viability ([1]; siRNA: siBRCA1) | IC50 of cell viability [1, 3] | drug sensitivity score ([2]; siRNA: siBRCA1) | drug sensitivity score [2, 3] |
| --- | --- | --- | --- | --- |
| C1CN1c1nc(N2CC2)nc(N2CC2)n1 [Triethylenemelamine] | > 4.17 µM | > 4.17 µM | 0 | 0 |
| Oc1ncc(N(CCCl)CCCl)c(O)n1 [Uracil mustard] | > 4.17 µM | > 4.17 µM | 0 | 0 |
